The record followed here is patent US20230398153A1, “A METHOD FOR EFFICIENT MICROGLIA REPLACEMENT” (The Board of Trustees of the Leland Stanford Junior …, priority 2020, published 2023).

This assay relates to PB leukocytes and brain myeloid cells. Briefly: Conventional HSCT after busulfan conditioning: GFP chimerism in peripheral blood and brain. It is filed as in vivo, mouse. Conditions: busulfan 5 days, IV GFP bone marrow. On the procedure:
FIG. 1. Microglia replacement after bone marrow transplantation is a slow, inefficient and variable process. (A) Schematic overview of bone marrow transplantation (HSCT). Recipient mice were received intraperitoneal (IP) injection of busulfan for 5 days at 25 mg/kg/day (i.e. 125 mg/kg total dose) and then transplanted with GFP-expressing bone marrow cells via intravenous (IV) injection. Donor chimerism in peripheral blood (PB) and brain myeloid cells was analyzed at the indicated time points. (B and C) Donor chimerism in PB leukocytes (CD45+ cells) and brain myeloid cells (CD45+CD11b+ cells) was analyzed by flow cytometry at the indicated time point. […] GFP chimerism in PB leukocytes (B) (Mean±SEM, n=5-20/time point, ***p<0.001, ns: not significant, ANOVA). […] (F) Quantification of transplanted GFP+bone marrow cells in coronal brain sections. […] Horizontal bars represent mean values (n=3/group, 3 brain slices/animal were quantified. **p<0.01, ***p<0.001, Student's t-test). […] (H) Microglia chimerism was analyzed by flow cytometry 14 days post IV injection. […]
The reported efficiencies of microglia replacement following HSCT in mice vary greatly in the literature. […] Brain chimerism was determined by sacrificing the mice, dissociating one hemisphere for flow cytometry analysis and fixing the other hemisphere for immunofluorescence analysis (FIG. 8A-C). […]

Regarding `CS(=O)(=O)OCCCCOS(C)(=O)=O` [busulfan], for the setting “2 weeks after transplantation, average”, the “GFP+ cells in peripheral blood” value is “about 40%”. Also, the “degree of GFP chimerism among brain myeloid cells, range between mice” value (conventional HSCT without PLX5622) is 7.09-73.4%.
